The values that follow come from patent US9125947B2, “Phenylethanoic acid, phenylpropanoic acid and phenylpropenoic acid conjugates and prodrugs of hydrocodone, method of making and use thereof” (KemPharm, Inc., priority 2009, dated 2015).

Data set [1] in a line: Intranasal PK in rats, Ibu-HC vs Hydrocodone BT (Example 6). The data set is classed as in vivo. The text has this:
The intranasal profiles of Ibu-HC were compared to the unconjugated drug Hydrocodone•BT by administering to rats intranasally and measuring the plasma concentration of hydrocodone or hydromorphone over time.

Data set [2] in a line: Chemical stability: hydrolysis in 5% NaHCO3. In kind it is physicochemical. The settings on record: 5% NaHCO3, one hour; for initial amount of conjugate hydrolyzed, 5% NaHCO3 ambient: ambient temperature (~20° C.); for initial amount of conjugate hydrolyzed, 5% NaHCO3 100° C.: oil bath at 100° C.
Data set [3] is described as follows: Oral PK in rats, Ibu-HC and Cinnamate-HC vs Hydrocodone BT (Example 5).
Data set [4] can be described thus: Intranasal PK in rats, Ibu-HC vs Adipate-HC (Example 3). The settings on record: equivalent to 2 mg/kg freebase hydrocodone.
A short description of data set [5]: Water solubility / ability to be dosed in solution (Example 4).
The nature of data set [6]: Chemical stability: hydrolysis to hydrocodone in 1 N hydrochloric acid. The settings on record: 1 hour; for initial amount of conjugate hydrolyzed, 1N HCl ambient: ambient temperature (~20° C.); for initial amount of conjugate hydrolyzed, 1N HCl 100° C.: oil bath at 100° C.

In the case of `COc1ccc2c3c1OC1C(OC(=O)C(C)c4ccc(CC(C)C)cc4)=CCC4C(C2)N(C)CCC314` (stereo not shown) [Ibu-HC, ibuprofen-hydrocodone], in data set [1], the “hydrocodone plasma concentrations compared with Hydrocodone•BT” value is reported as “significantly lower” and the “plasma concentration of hydromorphone compared with Hydrocodone•BT” value is recorded as “very low”. Moreover, in data set [2], the “initial amount of conjugate hydrolyzed, 5% NaHCO3 ambient” value (“initial amount … 5% NaHCO3 ambient” for short) is reported as 0% and the “initial amount of conjugate hydrolyzed, 5% NaHCO3 100° C.” value (“initial amount … 5% NaHCO3 100° C.” for short) is on record as 22%. Besides, the “hydrocodone and hydromorphone plasma concentrations compared with unconjugated Hydrocodone•BT” value in data set [3] (equivalent to 2 mg/kg freebase hydrocodone) is “similar”. Also, in data set [3] (same dose based on hydrocodone freebase (2 mg/kg)), the “AUC and Cmax values (hydrocodone and hydromorphone) compared with Hydrocodone•BT” value is listed as “within the range of bioequivalence”. Further, in data set [4], the “hydrocodone plasma concentrations compared with Adipate-HC” value is given as “significantly lower” and the “plasma concentration of hydromorphone compared with Adipate-HC” value is “very low”. For the same compound, in data set [5], the water solubility entry is reported as “very low water solubility”.

As to `COc1ccc2c3c1OC1C(OC(=O)COCC(=O)O)=CC[C@H]4[C@@H](C2)N(C)CC[C@]314` (stereo partly shown) [Diglycolate-HC], the water solubility entry in data set [5] is on record as “water-soluble”.

As to `COc1ccc2c3c1O[C@H]1C(=O)CC[C@H]4[C@@H](C2)N(C)CC[C@]314.O=C(O)C(O)C(O)C(=O)O` [Hydrocodone•BT, hydrocodone bitartrate, reference compound], the “hydrocodone AUC, higher than Ibu-HC” value in data set [1] (hydrocodone in plasma, relative to Ibu-HC) was “approximately 300%”.

Take `COc1ccc2cc(C(C)C(=O)OC3=CCC4C5Cc6ccc(OC)c7c6C4(CCN5C)C3O7)ccc2c1` (stereo not shown) [Naproxen-HC, naproxen-hydrocodone]: in data set [2], the “initial amount … 5% NaHCO3 ambient” value is 0% and the “initial amount … 5% NaHCO3 100° C.” value was determined as 8%. Further, in data set [6], the “initial amount of conjugate hydrolyzed, 1N HCl ambient” value is on record as 0% and the “initial amount of conjugate hydrolyzed, 1N HCl 100° C.” value was determined as 33%.

Take `COc1ccc2c3c1OC1C(OC(=O)CCCCC(=O)O)=CC[C@H]4[C@@H](C2)N(C)CC[C@]314` (stereo partly shown) [Adipate-HC, reference compound]: in data set [2], the “initial amount … 5% NaHCO3 ambient” value was determined as 3% and the “initial amount … 5% NaHCO3 100° C.” value was found to be 100%. In data set [6], the “initial amount of conjugate hydrolyzed, 1N HCl ambient” value was 13% and the “initial amount of conjugate hydrolyzed, 1N HCl 100° C.” value is on record as 100%. The “hydromorphone AUC, higher than Ibu-HC” value in data set [4] (hydromorphone in plasma, relative to Ibu-HC) is “approximately 940%”. In addition, the “hydrocodone AUC, higher than Ibu-HC” value in data set [4] (released hydrocodone in plasma, relative to Ibu-HC) is “approximately 170%”. Also, the water solubility result in data set [5] was “water-soluble”.
